Measured values reported in patent publication US20250339426A1, “GCN2 MODULATOR FOR TREATING CANCER” (HIBERCELL, INC., priority 2022, published 2025).

Tests used:
[1] = system: FaDu cells; experiment: Metabolomics in wild type and GCN2 CRISPR knockout FaDu cells; format: cell-based, human; details: 0.1 μM
Protocol: Wild type and GCN2 CRISPR knockout FaDu cells were treated with 0.1 μM for 9 hours, and metabolomics were evaluated.

[2] = system: KG-1 (human AML cancer cells); experiment: In vivo tumor growth inhibition, KG-1 xenograft; parameters: species or system NOD SCID mice; details: 1 and 3 mg/kg twice daily oral
Protocol: KG-1 (human AML cancer cells): Female 6-8 weeks old NOD SCID mice were inoculated subcutaneously on the right flank with KG1 tumor cells (5×10^6) in RPMI 1640 without serum for tumor development. The treatments were started when the mean tumor size reached approximately 194 mm^3 at Day 20 after cell inoculation and continued until end of study by twice daily oral gavage dosing of HC-7366 at listed doses (vehicle, 0.3 mg/kg HC-7366, 1 mg/kg HC-7366, 3 mg/kg HC-7366, 10 mg/kg HC-7366, or 30 mg/kg HC-7366, FIG. 17).
(§1) [formula] • 2.2.2 Tumor Measurements: The measurement of tumor size was conducted three times weekly with a caliper and recorded. The tumor volume (mm^3) was estimated using the formula: TV=a×b^2/2, where “a” and “b” is long and short diameters of a tumor, respectively. Tumor volume was calculated using the formula [tumor volume (mm^3)=π/6×length×width^2).
(§2) Regression was calculated using the formula=100×ΔT/T initial, if ΔT<0. Animals with 0 mm^3 tumor volume (no measurable tumor) for three consecutive measurements were considered as complete responders and animals with 50% tumor regressions were partial responders.

[3] = system: CTG-2700; experiment: Ex vivo AML PDX cell viability (Cell Titer Glo); format: cell-based; details: Homo sapiens, 144 h; PDX model CTG-2700, 6 days; read-out: HC-7366 EC50
Protocol: (§3) . Cell viability was assayed after treating PDX models with DMSO or HC-7366 for 6 days using a plate-based luminescence assay (Cell Titer Glo). […]
(§4) EC50 values were calculated to the bottom of the curve and are provided below. Viability curves are provided for the models CTG-2229 (FIG. 81), CTG-3680 (FIG. 82), CTG-3667 (FIG. 83), CTG-2456 (FIG. 84), CTG-2457 (FIG. 85), and CTG-2454 (FIG. 86).

[4] = system: CTG-3441; experiment: Ex vivo AML PDX cell viability (Cell Titer Glo); format: cell-based; details: Homo sapiens, 144 h; PDX model CTG-3441, 6 days; read-out: HC-7366 EC50
Protocol: as §3, §4

[5] = system: CTG-3674; experiment: Ex vivo AML PDX cell viability (Cell Titer Glo); format: cell-based; details: Homo sapiens, 144 h; PDX model CTG-3674, 6 days; read-out: HC-7366 EC50
Protocol: as §3, §4

[6] = system: CTG-2232; experiment: Ex vivo AML PDX cell viability (Cell Titer Glo); format: cell-based; details: Homo sapiens, 144 h; PDX model CTG-2232, 6 days; read-out: HC-7366 EC50
Protocol: as §3, §4

[7] = system: CTG-2774; experiment: Ex vivo AML PDX cell viability (Cell Titer Glo); format: cell-based; details: Homo sapiens, 144 h; PDX model CTG-2774, 6 days; read-out: HC-7366 EC50
Protocol: as §3, §4

[8] = system: CTG-2236; experiment: Ex vivo AML PDX cell viability (Cell Titer Glo); format: cell-based; details: Homo sapiens, 144 h; PDX model CTG-2236, 6 days; read-out: HC-7366 EC50
Protocol: as §3, §4

[9] = system: CTG-2239; experiment: Ex vivo AML PDX cell viability (Cell Titer Glo); format: cell-based; details: Homo sapiens, 144 h; PDX model CTG-2239, 6 days; read-out: HC-7366 EC50
Protocol: as §3, §4

[10] = system: FaDu cells; experiment: CTG viability assay, FaDu sgControl and sgGCN2 cells; format: cell-based, human; details: 72 or 96 hr
Protocol: FaDu cells were obtained from ATCC (#HTB-43) and were cultured in Eagle's Minimum Essential Medium, Catalog No. 30-2003 at 37° C. and 5% CO2. FaDu GCN2 CRISPR knockout cells (sgGCN2) or control cells (sgControl) were generated. For viability experiments, cells were plated in 384-well cell culture plates and incubated overnight. Compounds were diluted in 10 concentrations by 3-fold dilution in 384pp-plate using TECAN EVO200 to a final concentration ranging from […]. The plates were incubated for 72 or 96 hr and viability was assessed by adding CellTiter-Glo® 2.0 Assay according to the manufacturer's protocol (Promega, G9243) to each well. The plates were then incubated at RT for 30 min. The luminescent signals were read by Envision (PerkinElmer) plate reader and analyzed by Prism

[11] = system: MV4-11 (human AML cancer cells); experiment: In vivo tumor growth inhibition, MV4-11 xenograft; parameters: species or system BALB/c nude mice
Protocol: MV4-11 (human AML cancer cells): Female 6-8 weeks old BALB/c nude mice were inoculated subcutaneously on the right flank with MV4-11 tumor cells (1×10^7) in RPMI 1640 without serum for tumor development. The treatments were started when the mean tumor size reached approximately 150 mm^3 at Day 13 after cell inoculation and continued until end of study by twice daily oral gavage dosing of HC-7366 at listed doses (vehicle, 0.3 mg/kg HC-7366, 1 mg/kg HC-7366, 3 mg/kg HC-7366, 10 mg/kg HC-7366, or 30 mg/kg HC-7366, FIG. 20). For venetoclax combination study, venetoclax was dissolved in 0.5% carboxymethylcellulose (CMC) and co-administered at 50 mg/kg dose once daily (see Example 8).
as §1, §2
MV4-11 tumors were collected at the end of the venetoclax combination study described in Example 6. Tumor growth curves are provided of MV4-11 tumors treated with single agent HC-7366 and venetoclax or combination (FIG. 43).

[12] = system: MOLM-16 cells; experiment: CTG viability assay, MOLM-16 sgControl and sgGCN2 cells; format: cell-based, human; details: 24 or 48 hr
Protocol: MOLM-16 cells were obtained from DSMZ (#ACC 555) and were cultured in RPMI 1640 (Gibco, #11875119) with 20% FBS (Invitrogen, #10099141C) at 37° C. and 5% CO2. MOLM-16 GCN2 CRISPR knockout cells (sgGCN2) were generated and compared to control cells (sgControl). For viability experiments, cells were plated in 384-well cell culture plates and incubated overnight. Compounds were diluted in 8 concentrations by 3-fold dilution in 384pp-plate using TECAN EVO200 to a final concentration ranging from […]. The plates were incubated for 24 or 48 hr and viability was assessed by adding CellTiter-Glo® 2.0 Assay according to the manufacturer's protocol (Promega, G9243) to each well. The plates were then incubated at RT for 30 min. The luminescent signals were read by Envision (PerkinElmer) plate reader and analyzed by Prism.

## CNC(=O)c1ncn2cc(-c3c(F)ccc(NS(=O)(=O)c4cc(Cl)cnc4OC)c3F)ncc12 [HC-7366, 6-(3-((5-chloro-2-methoxypyridine)-3-sulfonamido)-2,6-difluorophenyl)-N-methylimidazo[1,5-a]pyrazine-1-carboxamide]
[1]; GCN2 dependent manner
  ATF4: induced
[1]; wild type FaDu cells, 9 h, GCN2-dependent
  level of many amino acids: enhanced level
[2]
  effect on tumor growth: tumor stasis
[3]
  EC50: 333 µM
[4]
  EC50: 102 µM
[5]
  EC50: 129 µM
[6]
  EC50: 84.3 µM
[7]
  EC50: 96.9 µM
[8]
  EC50: 36.5 µM
[9]
  EC50: 1170 µM
[10]; FaDu control cells
  viability: potently reduced viability
[10]; GCN2 CRISPR knockout cells
  viability response: reversed
[11]; 30 mg/kg twice daily oral
  TGI: 45%
[11]; venetoclax combination study, HC-7366 as a single agent, dose not stated
  TGI: 34%
[12]; GCN2 CRISPR knockout cells
  viability response: reversed
[12]; GCN2 wild-type (sgControl), lower concentrations, U-shaped manner
  viability: potently reduced viability
